Literature values as cited in patent US20030013675A1 (Boehringer Ingelheim Pharma KG, priority 2001, published 2003).

Assays:
[1] = test system: Human Neutrophils
[2] = test system: adherent human monocyte; conditions: in particular human peripheral blood monocyte
[3] = test system: antigen-challenged pig; conditions: in vivo
[4] = test system: guinea pig eosinophils
[5] = inhaled at several times the recommended dose

CCNC(=O)[C@H]1OC(n2cnc3c(N)nc(NCCc4ccc(CCC(=O)O)cc4)nc32)[C@H](O)[C@@H]1O (stereo partly shown) [CGS 21680]
neutrophil superoxidase release [1]: inhibits
endotoxin-stimulated adherent human monocyte TNFα production [2]: decreases

CCCn1c(=O)c2c(C)nc(CC)n2c2nc(OC)ccc21 [Example D-22888]
antiallergic effect [3]: strong antiallergic affect
rhinorrhea in the antigen-challenged pig [3]: inhibit rhinorrhea

CCNC(=O)[C@@H]1O[C@H](n2cnc3c(N)ncnc32)[C@@H](O)[C@H]1O [NECA]
zymosan-stimulated oxidative activity in guinea pig eosinophils [4]: inhibits

CC[N+]1(C)[C@@H]2CC(OC(=O)[C@H](CO)c3ccccc3)C[C@H]1[C@@H]1O[C@@H]12 (stereo partly shown) [oxitropium]
change in heart rate, blood pressure, bladder function, intraocular pressure, or pupillary diameter [5]: little or no change

C[N+]1(C)[C@@H]2C[C@@H](OC(=O)C(O)(c3cccs3)c3cccs3)C[C@H]1[C@@H]1O[C@@H]12 [tiotropium, (1α, 2β, 4β, 5α, 7β)-7-[(hydroxydi-2-thienylacetyl)oxy]-9,9-dimethyl-3-oxa-9-azoniatricyclo[3.3.1.0^2,4]nonane bromide]
change in heart rate, blood pressure, bladder function, intraocular pressure, or pupillary diameter [5]: little or no change
